From PMC8580996, “2-Oxoglutarate derivatives can selectively enhance or inhibit the activity of human oxygenases” (Nature Communications, 2021)
Where “and” joins values, the source holds several entries; their conditions need not be identical. Identical values can stand only once. Each block holds one compound with its values, some of them ahead of it.

Columns and labels:
FIH [1] = target: T1, FIH (Homo sapiens, UniProt Q9NWT6); experiment: Competition assay in a single reaction vessel, FIH-catalyzed hydroxylation (SPE-MS); format: biochemical; settings: Fig 2c; for substrate hydroxylation (% conversion): 20 μM 1, FIH
Description: Mean of three independent runs (n = 3; mean ± SD). […] Cosubstrates: a 20 μM 2OG; b 20 μM 2OG; c 20 μM 1; d 20 μM 12; e 20 μM 12 and 100 μM 2OG; f 100 μM 14. Source data are provided as a Source Data file.
Mean of three independent runs (n = 3; mean ± SD). […] Source data are provided as a Source Data file.
Peptide turnover was monitored by SPE-MS using the same instrument configuration (with the exception that the peptides were eluted from the SPE cartridge with 0.1%v/v aqueous formic acid in 80/20 v/v acetonitrile/water) as described above.
FIH and AspH-catalyzed peptide hydroxylations were analyzed simultaneously using SPE-MS as described in the
Methods section; competition experiments were performed in the same reaction vessel using equimolar 2OG
oxygenase and substrate concentrations. […]
Source data are provided as a Source Data file.
FIH and AspH-catalyzed peptide hydroxylations were analyzed simultaneously using SPE-
MS as described in the Methods section; competition experiments were performed in the same reaction vessel
using equimolar 2OG oxygenase and substrate concentrations. […]
2OG, 100 μM 14. Source data are provided as a Source Data file.

FIH [2] = target: T1, FIH; experiment: 1H NMR assay of FIH-catalyzed oxidative decarboxylation of cosubstrate, with SPE-MS of final mixture; format: biochemical; settings: 5 μM FIH, 150 μM CA1-20, 150 μM cosubstrate
Description: Supplementary Figure 2. […] FIH- […]
catalyzed oxidative decarboxylation of 2OG was monitored using a Bruker AVIII 700 NMR machine equipped with a 5 mm 1H(13C/15N) inverse cryoprobe; spectra were analyzed using the Bruker TopSpin 3.6.1 software.
50 μM ammonium iron(II) sulfate hexahydrate (FAS, (NH4)2Fe(SO4)2·6H2O) in 50 mM aqueous Tris-d11 containing 10% v/v D2O (pH 7.5, 25° C). The ratio of the CA 1-20 peptide and the hydroxylated CA 1-20(Ox) peptide, which is the product of the F IH-catalyzed hydroxylation reaction, was determined using SPE-MS after NMR […]
(a) Close-up (3.0-2.2 ppm) of the 1H NMR spectrum of commercial 2OG in 50 mM aqueous Tris-d11 containing 10%v/v D2O (pH 7.5, 25° C); (b) Close-up (3.0-2.2 ppm) of the 1H NMR spectrum of commercial succinate in 50 […]
FIH-catalyzed oxidative decarboxylation of 3-methyl-2OG (1) was monitored using a Bruker AVIII 700 NMR machine equipped with a 5 mm 1H(13C/15N) inverse cryoprobe; spectra were analyzed using the […]
Bruker TopSpin 3.6.1 software. […]
in 50 mM aqueous Tris -d11 containing 10% v/v D2O (pH 7.5, 25° C). The ratio of the CA 1-20 peptide and the hydroxylated CA 1-20(Ox) peptide, which is the product of the FIH -catalyzed hydroxylation reaction, was […]
(a) Close -up (3.4 -0.9 ppm) of the 1H NMR spectrum of synthetic 1 in 50 mM aqueous Tris-d11 containing 10% v/v D2O (pH 7.5, 2 5° C); ( b) Close -up (3.4 -0.9 ppm) of the 1H NMR spectrum of commercial 2 -methylsuccinate ( 36) […]
FIH-catalyzed oxidative decarboxylation of 4-methyl-2OG (12) was monitored using a Bruker AVIII 700 NMR machine equipped with a 5 mm 1H(13C/15N) inverse cryoprobe; spectra were analyzed using the Bruker TopSpin 3.6.1 software.
(NH4)2Fe(SO4)2·6H2O) in 50 mM aqueous Tris-d11 containing 10% v/v D2O (pH 7.5, 25° C). The ratio of the CA 1-20 peptide and the hydroxylated CA 1-20(Ox) peptide, which is the product of the FI H-catalyzed hydroxylation […]
(a) Close -up (3.3 -0.9 ppm) of the 1H NMR spectrum of synthetic 12 in 50 mM aqueous Tris-d11 containing 10% v/v D2O (pH 7.5, 25° C); ( b) Close -up (3.4 -0.9 ppm) of the 1H NMR spectrum of commercial 2 -methylsuccinate ( 36)

AspH = target: T2, AspH (Homo sapiens, UniProt Q12797); settings: 0.05 μM AspH, 1.0 μM hFX-CP101-119, 3.0 μM 2OG, ref 21 (supplementary ref 1); cited from earlier work
T2 construct: the tetratricopeptide repeat domain (His6-AspH315-758), was produced and purified as previously reported; made in house
T2 sequence (Q12797 315-758): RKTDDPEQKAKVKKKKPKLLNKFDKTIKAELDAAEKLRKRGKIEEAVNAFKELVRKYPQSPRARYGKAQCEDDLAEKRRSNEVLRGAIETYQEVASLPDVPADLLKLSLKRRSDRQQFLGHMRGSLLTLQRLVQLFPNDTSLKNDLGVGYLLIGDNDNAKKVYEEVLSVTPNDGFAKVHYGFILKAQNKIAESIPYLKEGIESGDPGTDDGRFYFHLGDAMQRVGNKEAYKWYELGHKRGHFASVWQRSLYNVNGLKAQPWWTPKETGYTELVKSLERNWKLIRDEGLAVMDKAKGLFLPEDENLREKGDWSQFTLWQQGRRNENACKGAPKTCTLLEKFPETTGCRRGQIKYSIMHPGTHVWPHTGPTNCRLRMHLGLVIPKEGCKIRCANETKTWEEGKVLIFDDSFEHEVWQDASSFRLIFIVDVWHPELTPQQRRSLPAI

T1 sequence (Q9NWT6 whole entry): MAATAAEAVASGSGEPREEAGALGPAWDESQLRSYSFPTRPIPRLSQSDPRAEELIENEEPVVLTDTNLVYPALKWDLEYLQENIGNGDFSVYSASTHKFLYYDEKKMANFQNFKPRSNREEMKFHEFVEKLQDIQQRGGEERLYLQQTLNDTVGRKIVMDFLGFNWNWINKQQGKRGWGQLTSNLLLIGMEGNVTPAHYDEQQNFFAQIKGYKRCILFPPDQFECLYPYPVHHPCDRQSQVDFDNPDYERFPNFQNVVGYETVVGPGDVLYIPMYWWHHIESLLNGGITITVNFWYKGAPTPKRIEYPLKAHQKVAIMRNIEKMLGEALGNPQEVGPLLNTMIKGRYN

- substrate hydroxylation (% conversion) (FIH [1]; 0 min): 3.506 and 4.816 and 5.633
- substrate hydroxylation (% conversion) (FIH [1]; 0.700167 min): 19.4856 and 18.7444 and 19.2793
- substrate hydroxylation (% conversion) (FIH [1]; 1.39933 min): 32.3038 and 30.8139 and 30.8824
- substrate hydroxylation (% conversion) (FIH [1]; 2.10017 min): 43.2797 and 40.6551 and 40.5787
- substrate hydroxylation (% conversion) (FIH [1]; 2.79917 min): 51.3082 and 49.0078 and 49.2389
- substrate hydroxylation (% conversion) (FIH [1]; 3.5005 min): 58.9995 and 56.3411 and 56.671
- substrate hydroxylation (% conversion) (FIH [1]; 4.20083 min): 64.1723 and 62.5798 and 63.2033
- substrate hydroxylation (% conversion) (FIH [1]; 4.9 min): 69.5252 and 67.0447 and 68.2025
- substrate hydroxylation (% conversion) (FIH [1]; 5.60117 min): 73.4042 and 71.6094 and 72.347
- substrate hydroxylation (% conversion) (FIH [1]; 6.29967 min): 77.1725 and 74.6235 and 74.9327
- substrate hydroxylation (% conversion) (FIH [1]; 7.00033 min): 79.731 and 76.5169 and 77.4955
- substrate hydroxylation (% conversion) (FIH [1]; 7.7025 min): 81.4904 and 79.3791 and 79.9762
- substrate hydroxylation (% conversion) (FIH [1]; 8.40233 min): 83.8334 and 81.9815 and 82.8865
- substrate hydroxylation (% conversion) (FIH [1]; 9.10283 min): 86.0072 and 84.3134 and 84.9864
- substrate hydroxylation (% conversion) (FIH [1]; 9.806 min): 87.2729 and 86.3042 and 86.5893
- substrate hydroxylation (% conversion) (FIH [1]; 11.207 min): 89.9552 and 84.6882 and 85.7483
- FIH-catalyzed CA1–20 hydroxylation (FIH [1]; 20 μM 1, after about 8 min): > 80%
- hydroxylation of CA1-20 peptide in final reaction mixture (SPE-MS) (FIH [2]; t = 10 min): > 90%
- FIH-catalyzed conversion of cosubstrate to succinate / 2-methylsuccinate (1H NMR) (FIH [2]; within 5 min): ~ 70%
Structure (SMILES): CC(CC(=O)O)C(=O)C(=O)O (stereo not drawn) [compound 1, 3-methyl-2OG]
- IC50 AspH (AspH): inactive

Structure (SMILES): O=C(O)C(=O)C1CCC(C(=O)O)C1 (stereo not drawn) [compound 22, 3-(carboxycarbonyl)cyclopentane-1-carboxylic acid]
- IC50 (AspH): 5 µM
